Measurements as given in US20230106943A1, “ENGINEERED ANTIMICROBIAL PEPTIDES AND USAGE THEREOF” (Peptilogics, Inc., priority 2021, published 2023).
No end group written: not given here.

Test: Example 4 stability of concentrated solutions: HPLC-UV Assay/RS (method 78917)
Assay type: physicochemical
Procedure: The peptide formulation of SEQ ID NO: 1 dissolved in a saline solution with a pH of 5.0±0.1 was tested for stability under either −20° C. or 40° C. with 75% relative humidity (RH). […]

[1] = 15.3 mg/mL solution, 40° C. and 75% RH, 1 Month
[2] = 15.3 mg/mL solution, 40° C. and 75% RH, 2 Month
[3] = 15.3 mg/mL solution, 40° C. and 75% RH, 3 Month
[4] = 15.3 mg/mL solution, 40° C. and 75% RH, 6 Month
[5] = 15.3 mg/mL solution, −20° C., 0 Month
[6] = 15.3 mg/mL solution, −20° C., 1 Month
[7] = 15.3 mg/mL solution, −20° C., 2 Month
[8] = 15.3 mg/mL solution, −20° C., 3 Month
[9] = 15.3 mg/mL solution, −20° C., 6 Month
[10] = 15.3 mg/mL solution, −20° C., 9 Month
[11] = 36.7 mg/mL solution, 40° C. and 75% RH, 1 Month
[12] = 36.7 mg/mL solution, 40° C. and 75% RH, 2 Month
[13] = 36.7 mg/mL solution, 40° C. and 75% RH, 3 Month
[14] = 36.7 mg/mL solution, 40° C. and 75% RH, 6 Month
[15] = 36.7 mg/mL solution, −20° C., 0 Month
[16] = 36.7 mg/mL solution, −20° C., 1 Month

RRWVRRVRRVWRRVVRVVRRWVRR-NH2 [SEQ ID NO: 1]
HPLC-UV Assay/RS % Assay [1]: 96.0% | HPLC-UV Assay/RS % Purity [1]: 99% | HPLC-UV Assay/RS % Total Impurities [1]: 1.0% | RRT 1.02 Mean % Area [1]: 1.0% | RRT […] area (Inj-1) [1]: 0.97% | RRT […] area (Inj-2) [1]: 0.95% | SEQ ID NO: 1 % area (Inj-1) [1]: 99.03% | SEQ ID NO: 1 % area (Inj-2) [1]: 99.05% | SEQ ID NO: 1 Mean % Area [1]: 99.0% | HPLC-UV Assay/RS % Assay [2]: 103.8% | HPLC-UV Assay/RS % Purity [2]: 99% | HPLC-UV Assay/RS % Total Impurities [2]: 1.4% | HPLC-UV Assay/RS Impurities RRT/%, RRT 1.02 [2]: 1.02/1.0% | HPLC-UV Assay/RS Impurities RRT/%, RRT 1.08 [2]: 1.08/0.2% | HPLC-UV Assay/RS Impurities RRT/%, RRT 1.10 [2]: 1.10/0.2% | HPLC-UV Assay/RS % Assay [3]: 96.8% | HPLC-UV Assay/RS % Purity [3]: 99% | HPLC-UV Assay/RS % Total Impurities [3]: 1.3% | HPLC-UV Assay/RS Impurities RRT/%, RRT 1.02 [3]: 1.02/1.1% | HPLC-UV Assay/RS Impurities RRT/%, RRT 1.25 [3]: 1.25/0.2% | % assay [4]: 97.5% | HPLC-UV Assay/RS % Purity [4]: 98% | HPLC-UV Assay/RS % Total Impurities [4]: 2.5% | HPLC-UV Assay/RS % Assay [5]: 99.8% | HPLC-UV Assay/RS % Purity [5]: 99.0% | HPLC-UV Assay/RS % Total Impurities [5]: 1.0% | RRT 1.02 Mean % Area [5]: 1.0% | RRT […] area (Inj-1) [5]: 1.05% | RRT […] area (Inj-2) [5]: 1.03% | SEQ ID NO: 1 % area (Inj-1) [5]: 98.95% | SEQ ID NO: 1 % area (Inj-2) [5]: 98.97% | SEQ ID NO: 1 Mean % Area [5]: 99.0% | HPLC-UV Assay/RS % Assay [6]: 103.4% | HPLC-UV Assay/RS % Purity [6]: 99% | HPLC-UV Assay/RS % Total Impurities [6]: 0.9% | RRT 1.02 Mean % Area [6]: 0.9% | RRT […] area (Inj-1) [6]: 0.88% | RRT […] area (Inj-2) [6]: 0.87% | SEQ ID NO: 1 % area (Inj-1) [6]: 99.12% | SEQ ID NO: 1 % area (Inj-2) [6]: 99.13% | SEQ ID NO: 1 Mean % Area [6]: 99.1% | HPLC-UV Assay/RS % Assay [7]: 106.0% | HPLC-UV Assay/RS % Purity [7]: 99% | HPLC-UV Assay/RS % Total Impurities [7]: 0.9% | HPLC-UV Assay/RS Impurities RRT/%, RRT 1.02 [7]: 1.02/0.9% | HPLC-UV Assay/RS % Assay [8]: 99.7% | HPLC-UV Assay/RS % Purity [8]: 99% | HPLC-UV Assay/RS % Total Impurities [8]: 0.9% | HPLC-UV Assay/RS Impurities RRT/%, RRT 1.02 [8]: 1.02/0.9% | HPLC-UV Assay/RS % Assay [9]: 102.1% | HPLC-UV Assay/RS % Purity [9]: 99% | HPLC-UV Assay/RS % Total Impurities [9]: 0.9% | HPLC-UV Assay/RS Impurities RRT/%, RRT 1.02 [9]: 1.02/0.9% | HPLC-UV Assay/RS % Assay [10]: 101.0% | HPLC-UV Assay/RS % Purity [10]: 100% | HPLC-UV Assay/RS % Total Impurities [10]: 0.3% | HPLC-UV Assay/RS Impurities RRT/%, RRT 1.01 [10]: 1.01/0.3% | % Purity [11]: 99% | % Total Impurities [11]: 0.9% | HPLC-UV % Assay [11]: 97.5% | RRT 1.02 impurity % area (Inj-1) [11]: 0.94 % area | RRT 1.02 impurity % area (Inj-2) [11]: 0.91 % area | RRT 1.02 impurity Mean % Area [11]: 0.9 % Area | SEQ ID NO: 1 peak % area (Inj-1) [11]: 99.06 % area | SEQ ID NO: 1 peak % area (Inj-2) [11]: 99.09 % area | SEQ ID NO: 1 peak Mean % Area [11]: 99.1 % Area | % Purity [12]: 99% | % Total Impurities [12]: 1.2% | HPLC-UV % Assay [12]: 101.7% | % Purity [13]: 99% | % Total Impurities [13]: 1.5% | HPLC-UV % Assay [13]: 97.3% | % Purity [14]: 97% | % Total Impurities [14]: 3.0% | HPLC-UV % Assay [14]: 94.8% | HPLC-UV Assay/RS % Assay [15]: 97.9% | HPLC-UV Assay/RS % Purity [15]: 99.0% | HPLC-UV Assay/RS % Total Impurities [15]: 1.0% | RRT 1.02 Mean % Area [15]: 1.0% | RRT […] area (Inj-1) [15]: 1.02% | RRT […] area (Inj-2) [15]: 1.03% | SEQ ID NO: 1 % area (Inj-1) [15]: 98.98% | SEQ ID NO: 1 % area (Inj-2) [15]: 98.97% | SEQ ID NO: 1 Mean % Area [15]: 99.0% | HPLC-UV Assay/RS % Assay [16]: 98.6% | HPLC-UV Assay/RS % Purity [16]: 99% | HPLC-UV Assay/RS % Total Impurities [16]: 0.9% | RRT 1.02 Mean % Area [16]: 0.9% | RRT […] area (Inj-1) [16]: 0.87% | RRT […] area (Inj-2) [16]: 0.88%
